Our source for the IC50 values is patent US20090054421A1, “Pyrimidothiophene Compounds Having HSP90 Inhibitory Activity” (Vernalis R & D Limited, priority 2005, published 2009).

A value given as a limit tells only on which side of the number the result lay.

The target of this experiment is T1, human full-length HSP90 (Homo sapiens, UniProt P08238).
T1 construct: E. coli expressed human full-length HSP90 protein, purified >95%; made in house; host or cells: E. coli
T1 sequence (P08238 whole entry): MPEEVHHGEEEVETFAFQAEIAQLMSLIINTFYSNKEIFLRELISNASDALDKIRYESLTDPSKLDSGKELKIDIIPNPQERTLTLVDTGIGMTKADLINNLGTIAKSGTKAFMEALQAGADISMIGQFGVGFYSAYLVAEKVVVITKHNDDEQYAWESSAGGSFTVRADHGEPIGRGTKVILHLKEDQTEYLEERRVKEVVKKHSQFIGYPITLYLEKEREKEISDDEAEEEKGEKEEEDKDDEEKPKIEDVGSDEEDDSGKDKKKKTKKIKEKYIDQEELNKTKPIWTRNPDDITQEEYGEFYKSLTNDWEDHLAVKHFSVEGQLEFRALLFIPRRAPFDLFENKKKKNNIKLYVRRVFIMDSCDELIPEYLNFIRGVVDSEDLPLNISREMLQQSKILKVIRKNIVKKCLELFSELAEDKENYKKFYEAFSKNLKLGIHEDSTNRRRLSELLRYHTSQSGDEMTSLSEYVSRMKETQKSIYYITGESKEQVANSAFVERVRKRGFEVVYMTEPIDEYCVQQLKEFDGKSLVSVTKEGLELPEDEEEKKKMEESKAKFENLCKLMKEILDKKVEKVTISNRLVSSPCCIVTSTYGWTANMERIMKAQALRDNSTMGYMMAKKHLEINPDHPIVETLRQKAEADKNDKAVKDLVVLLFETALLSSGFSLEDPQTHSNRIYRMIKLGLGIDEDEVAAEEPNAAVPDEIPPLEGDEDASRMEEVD
Put plainly: Fluorescence polarization assay (competitive displacement of fluorescein-labelled probe from HSP90). Type of experiment: binding. The note with it: activity range A or B. The text has this: Fluorescence Polarization Assay
Fluorescence polarization {also known as fluorescence anisotropy} measures the rotation of a fluorescing species in solution, where the larger molecule the more polarized the fluorescence emission. When the fluorophore is excited with polarized light, the emitted light is also polarized. The molecular size is proportional to the polarization of the fluorescence emission.
The fluoroscein-labelled probe—
binds to HSP90 {full-length human, full-length yeast or N-terminal domain HSP90} and the anisotropy {rotation of the probe:protein complex} is measured.
Test compound is added to the assay plate, left to equilibrate and the anisotropy measured again. Any change in anisotropy is due to competitive binding of compound to HSP90, thereby releasing probe.
Chemicals are of the highest purity commercially available and all aqueous solutions are made up in AR water. • 1) Costar 96-well black assay plate #3915 • 2) Assay buffer of (a) 100 mM Tris pH7.4; (b) 20 mM KCl; (c) 6 mM MgCl2. Stored at room temperature. • 3) BSA (bovine serum albumen) 10 mg/ml (New England Biolabs # B9001S) • 4) 20 mM probe in 100% DMSO stock concentration. Stored in the dark at RT. Working concentration is 200 nM diluted in AR water and stored at 4° C., Final concentration in assay 80 nM. • 5) E. coli expressed human full-length HSP90 protein, purified >95% (see, e.g., Panaretou et al., 1998) and stored in 50 μL aliquots at −80° C.
• 1) Add 100 μl 1× buffer to wells 11A and 12A (=FP BLNK) • 2) Prepare assay mix—all reagents are kept on ice with a lid on the bucket as the probe is light-sensitive.
• 3) Aliquot 100 μl assay mix to all other wells • 4) Seal plate and leave in dark at room temp for 20 minutes to equilibrate Compound Dilution Plate—1×3 dilution series • 1) In a clear 96-well v-bottom plate—{# VWR 007/008/257} add 10 μl 100% DMSO to wells B1 to H11 • 2) To wells A1 to A11 add 17.5 μl 100% DMSO • 3) Add 2.5 μl cpd to A1. This gives 2.5 mM {50×} stock cpd—assuming cpds 20 mM. • 4) Repeat for wells A2 to A10. Control in columns 11 and 12. • 5) Transfer 5 μl from row A to row B—not column 12. Mix well. • 6) Transfer 5 μl from row B to row C. […] In column 11 {provides standard curve} only add compound B11-H11. Add 2 μl of 100 mM standard cpd to wells B12-H12 {is positive control} • 13) The Z′ factor is calculated from zero controls and positive wells. It typically gives a value of 0.7-0.9.
The compounds tested in the above assay were assigned to one of two activity ranges, namely A=<10 μM; B=>10 μM, and those assignments are reported above.
In general, IC50 refers to the concentration at which inhibition is half-maximal. Read a high IC50 as weaker potency. Compound `CCNC(=O)c1cc2c(C(=NOC)c3ccc4c(c3)OCCN4C)nc(N)nc2s1` (mixture of isomers) [Example 1, 2-Amino-4-[methoxyimino-(4-methyl-3,4-dihydro-2H-benzo[1,4]oxazin-7-yl)-methyl]-thieno[2,3-d]pyrimidine-6-carboxylic acid ethylamide] came in with an IC50 of under 10 µM.
Under `CCNC(=O)c1cc2c(C(=NO)c3ccc4c(c3)OCCN4C)nc(N)nc2s1` (mixture of isomers) [Example 2, 2-Amino-4-[hydroxyimino-(4-methyl-3,4-dihydro-2H-benzo[1,4]oxazin-7-yl)-methyl]-thieno[2,3-d]pyrimidine-6-carboxylic acid ethylamide] stands under 10 µM; under `CCNC(=O)c1cc2c(C(=NOCCN3CCCC3)c3ccc4c(c3)OCO4)nc(N)nc2s1` (mixture of isomers) [Example 28], under 10 µM.
`CCNC(=O)c1cc2c(C(=NOCCN3CCCC3=O)c3ccc4c(c3)OCO4)nc(N)nc2s1` (mixture of isomers) [Example 29] gave a 50% inhibitory concentration (IC50) of under 10 µM.
The result for `CCNC(=O)c1cc2c(C(=NOCCN(CC)CC)c3cc4c(cc3Cl)OCO4)nc(N)nc2s1` (mixture of isomers) [Example 30] reads under 10 µM; that for `CC(C)NC(=O)c1cc2c(C(=NOCCN3CCCC3=O)c3ccc4c(c3)OCO4)nc(N)nc2s1` (mixture of isomers) [Example 46], under 10 µM.
On to `CC(C)(C)NC(=O)c1cc2c(C(=NOCCN3CCCC3)c3ccc4c(c3)OCO4)nc(N)nc2s1` (mixture of isomers) [Example 54], for which the IC50 is under 10 µM.
Under `COCCNC(=O)c1cc2c(C(=NOCCN3CCCC3=O)c3ccc4c(c3)OCO4)nc(N)nc2s1` (mixture of isomers) [Example 57] stands under 10 µM; under `CCNC(=O)c1cc2c(C(=NO)c3ccc4c(c3)OCO4)nc(N)nc2s1` [Example 3, 2-Amino-4-(benzo[1,3]dioxol-5-yl-hydroxyimino-methyl)-thieno[2,3-d]pyrimidine-6-carboxylic acid ethylamide], under 10 µM; under `CCOC(=O)c1cc2c(C(=NOC)c3ccc4c(c3)OCO4)nc(N)nc2s1` [Example 4, 2-Amino-4-(benzo[1,3]dioxol-5-yl-methoxyimino-methyl)-thieno[2,3-d]pyrimidine-6-carboxylic acid ethyl ester], under 10 µM.
Take `CCNC(=O)c1cc2c(C(=NO)c3ccccn3)nc(N)nc2s1` [Example 5]: the IC50 was under 10 µM.
The result for `CCNC(=O)c1cc2c(C(=NO)c3cc4c(cc3Cl)OCO4)nc(N)nc2s1` [Example 6] reads under 10 µM; that for `CCNC(=O)c1cc2c(C(=NO)c3cccnc3)nc(N)nc2s1` [Example 7], over 10 µM; that for `CCNC(=O)c1cc2c(C(=NO)c3cccc(OC)c3)nc(N)nc2s1` [Example 9], under 10 µM.
The result for `CCNC(=O)c1cc2c(C(=NO)c3ccc(Cl)cc3)nc(N)nc2s1` [Example 10] reads under 10 µM.
`CCNC(=O)c1cc2c(C(=NO)c3ccccc3Cl)nc(N)nc2s1` [Example 11] had an IC50 of over 10 µM.
The result for `CCNC(=O)c1cc2c(C(=NO)c3ccc(OC)cc3)nc(N)nc2s1` [Example 12] reads under 10 µM.
In turn, `CCNC(=O)c1cc2c(C(=NO)c3cccc(Cl)c3)nc(N)nc2s1` [Example 13] showed a 50% inhibitory concentration (IC50) of under 10 µM.
The result for `CCNC(=O)c1cc2c(C(=NO)c3ccc4ccccc4c3)nc(N)nc2s1` [Example 14] reads under 10 µM.
In turn, `CCNC(=O)c1cc2c(C(=NO)c3ccc(OC)c(OC)c3)nc(N)nc2s1` [Example 15] registered a half-maximal inhibitory concentration (IC50) of under 10 µM.
Under `CCNC(=O)c1cc2c(C(=NO)c3ccc4c(c3)CCO4)nc(N)nc2s1` [Example 16] stands under 10 µM; under `CCNC(=O)c1cc2c(C(=NO)c3ccco3)nc(N)nc2s1` [Example 17], under 10 µM.
With `CCNC(=O)c1cc2c(C(=NO)c3ccc4[nH]ccc4c3)nc(N)nc2s1` [Example 18], the half-inhibitory concentration (IC50) is under 10 µM.
Turning to `CCNC(=O)c1cc2c(C(=NO)c3ccoc3)nc(N)nc2s1` [Example 19], the IC50 is under 10 µM.
Compound `Nc1nc(C(=NO)c2ccc3c(c2)OCO3)c2cc(C(=O)NC3CC3)sc2n1` [Example 20, 2-Amino-4-(benzo[1,3]dioxol-5-yl-hydroxyimino-methyl)-thieno[2,3-d]pyrimidine-6-carboxylic acid cyclopropylamide] came in with an IC50 of under 10 µM.
On to `CC(C)(C)NC(=O)c1cc2c(C(=NO)c3ccc4c(c3)OCO4)nc(N)nc2s1` [Example 21], for which the half-inhibitory concentration (IC50) was under 10 µM.
Compound `COCCNC(=O)c1cc2c(C(=NO)c3ccc4c(c3)OCO4)nc(N)nc2s1` [Example 22] returned an IC50 of under 10 µM.
The result for `CN(C)CCCNC(=O)c1cc2c(C(=NO)c3ccc4c(c3)OCO4)nc(N)nc2s1` [Example 23] reads under 10 µM.
Under `CN(C)CCNC(=O)c1cc2c(C(=NO)c3ccc4c(c3)OCO4)nc(N)nc2s1` [Example 24] stands under 10 µM; under `Nc1nc(C(=NO)c2ccc3c(c2)OCO3)c2cc(C(=O)NCC(F)(F)F)sc2n1` [Example 25], under 10 µM; under `CCNC(=O)c1cc2c(C(=NOCCN(CC)CC)c3ccc4c(c3)OCO4)nc(N)nc2s1` [Example 26, 2-Amino-4-(benzo[1,3]dioxol-5-yl-(2-diethylamino-ethoxyimino)-methyl]-thieno[2,3-d]pyrimidine-6-carboxylic acid ethylamide], under 10 µM.
In the case of `CCNC(=O)c1cc2c(C(=NOCCN(CC)CC)c3cccc(OC)c3)nc(N)nc2s1` [Example 31], the IC50 is under 10 µM.
Under `CCNC(=O)c1cc2c(C(=NOCCN(CC)CC)c3ccc4c(c3)OCCO4)nc(N)nc2s1` [Example 32] stands under 10 µM; under `CCNC(=O)c1cc2c(C(=NOCCN(CC)CC)c3ccc(OC)cc3)nc(N)nc2s1` [Example 33], under 10 µM.
The result for `CCNC(=O)c1cc2c(C(=NOCC(=O)O)c3ccc4c(c3)OCO4)nc(N)nc2s1` [Example 34] reads under 10 µM.
The result for `CCNC(=O)c1cc2c(C(=NOCC(=O)N3CCCCC3)c3ccc4c(c3)OCO4)nc(N)nc2s1` [Example 35] reads under 10 µM; that for `CCNC(=O)c1cc2c(C(=NOCCN(CC)CC)c3ccco3)nc(N)nc2s1` [Example 37], over 10 µM.
`CCNC(=O)c1cc2c(C(=NOCCN(CC)CC)c3cccs3)nc(N)nc2s1` [Example 38] had an IC50 of over 10 µM.
Under `CCNC(=O)c1cc2c(C(=NOCCN3CCCC3)c3cccs3)nc(N)nc2s1` [Example 39] stands over 10 µM; under `CCNC(=O)c1cc2c(C(=NOCCN3CCCC3=O)c3cccs3)nc(N)nc2s1` [Example 40], under 10 µM.
The result for `CCNC(=O)c1cc2c(C(=NOCCN(CC)CC)c3ccco3)nc(N)nc2s1` [Example 41] reads under 10 µM; that for `CCNC(=O)c1cc2c(C(=NOCCN(CC)CC)c3ccncc3)nc(N)nc2s1` [Example 42], over 10 µM.
The result for `CCNC(=O)c1cc2c(C(=NOCCN3CCCC3)c3ccco3)nc(N)nc2s1` [Example 43] reads under 10 µM; that for `CCN(CC)CCON=C(c1ccc2c(c1)OCO2)c1nc(N)nc2sc(C(=O)NC(C)C)cc12` [Example 44], under 10 µM; that for `CC(C)NC(=O)c1cc2c(C(=NOCCN3CCCC3)c3ccc4c(c3)OCO4)nc(N)nc2s1` [Example 45], under 10 µM.
